The results in this text go back to patent US12599584B2, “Indoline derivatives, compositions comprising them and uses thereof” (Yissum Research Development Company of The Hebrew …, priority 2016, dated 2026).

In assay [1] the test system is NO release from LPS-activated RAW cells. Briefly: Release of NO from LPS-activated RAW 264.7 macrophages (Griess). It is filed as cell-based, mouse. The note with it: for Lowest concentration that inhibited NO release by 25%: LPS-activated RAW cells; for Greater concentration needed to cause the same effect (NO release): substituent in position 5, compared with AN1284. On the procedure:
(§1) Anti-inflammatory activity was measured in RAW 264.7 macrophage cells. The cells were seeded at density of 5×10^4 per well in 48-well culture plates and grown overnight in DMEM as described above. The compounds were added to give final concentrations ranging from 1×10^−12-1×10^−6 M of the respective salts per well. The cells were incubated for 2 h at 37° C. prior to stimulation with lipopolysaccharide (LPS, 2.5 μg/mL) from Escherichia coli (Sigma-Aldrich). Supernatants were harvested after 8 h for detection of TNF-α and after 24 h for nitric oxide (NO). NO production was detected by a colourimetric method using Griess reagent (0.2% naphthylenediamine dihydrochloride, and 2% sulfanilamide in 5% phosphoric acid), which measures the concentration of nitrite, a stable metabolite produced from NO. TNF-α protein was detected by means of the sandwich ELISA method using an ELISA kit (Biolegend, San Diego, CA, USA) according to the manufacturer's instructions.
In general terms: Nitrite, measured by Griess reagent, commonly stands in for NO production.

The subject of assay [2] is TNF-α release from LPS-activated RAW cells. As to the kind of experiment: Release of TNF-α from LPS-activated RAW 264.7 macrophages (ELISA). The note with it: for Lowest concentration that inhibited TNF-α release by 25%: LPS-activated RAW cells; for Greater concentration needed to cause the same effect (TNF-α release): substituent in position 5, compared with AN1284. Type of assay: cell-based, mouse. On the procedure: as §1
A general note: An ELISA detects its analyte on a solid surface through an enzyme-linked reagent.

A further assay deals with LPS-injected mice. As to the kind of experiment: Pro-inflammatory cytokine proteins in tissues of mice injected with LPS. The note with it: sc, 2-3 doses, 15 min before LPS 10 mg/kg ip; 4 h after LPS. It is filed as in vivo, mouse. Here is the method:
Male Balb/c OlaHsd mice (aged 7-8 weeks) were injected subcutaneously (sc) with saline, or with AN1279, AN1283, AN1284, AN1287 and AN1298 at doses that contain approximately the equivalent amount of the base. LPS (10 mg/kg) was given by intraperitoneal injection 15 min later. The mice were sacrificed 4 h later, which was previously shown to be the optimal time for elevation of cytokines in the spleen and brain. The spleen, brain and liver were rapidly removed and frozen in liquid nitrogen and stored at −80° C. until use. A piece of the cortex was taken for gene analysis of cytokines. Blood was collected into heparinized tubes and plasma separated by centrifugation. For measurement of cytokine protein, tissues were weighed and diluted in PBS containing 0.8% NaCl, 0.144% NaHPO4, 0.024% KH2PO4 and protease inhibitor cocktail (Sigma) and homogenised in an Ultra-TURRAX® homogeniser at a speed of 24,000 rpm and centrifuged at 14000 g for 15 min at 4° C. Cytokines were detected by means of Elisa kits (Biolegend) and protein concentration was determined by a bicinchoninic acid protein assay kit (Thermo Scientific, IL, USA).

Assay [3] concerns C57B1/6 mice with STZ-induced diabetes. As to the kind of experiment: Diabetic nephropathy induced by streptozotocin (STZ). Type of assay: in vivo, mouse. From the text: The renal proximal tubule is uniquely susceptible to a variety of metabolic and hemodynamic factors associated with diabetes, predominantly to hyperglycaemia. Glucose entry into renal proximal tubular cells is insulin-independent, making these cells particularly sensitive to the deleterious effects of chronic hyperglycaemia in subjects with diabetes. To induce diabetic nephropathy, male 20, 8-week-old C57B1/6 mice were given five consecutive intraperitoneal injections of streptozotocin (STZ) (50 mg/kg per day). A control group of 10 mice was given 0.1 mol/L citrate buffer (pH 4.5). Ten days following the last injection of STZ, half the mice were treated twice daily with sc injections of AN1284 2HCl (2 μmoles/kg), or vehicle (saline) for fifteen weeks.

For assay [4], the system named is IL-6 in human macrophages. Briefly: IL-6 in human macrophages after elevation by LPS (ELISA). It is filed as cell-based. To be noted: 24 h after LPS; 1 × 10^−9 M. Here is the method: (§2) Blood (20 ml was collected from healthy human subjects on the day of the experiment in anti-coagulant tubes and diluted in PBS 1:1. Ficol (12 mL) was added into the bottom of the tube, centrifuged slowly for 30 min at 1400 g and peripheral blood mononuclear cells (PBMCs) were separated. Monocytes were isolated by addition of 15 ml of MACS buffer. After centrifugation at 1400 g for 10 min at 4° C., the supernatant fluid was removed, monocytes were isolated by means of a MACS-Monocyte isolation kit (cat: 130-091-153) and incubated at 4-8° C. for 10 min Monocytes (500,000/well) were seeded in 12 multi well plate and cultured for 7 days in RPMI+L-Glutamin+FBS (10%) and PenStrep and h-MCSF (20 ng/mL) to convert them into macrophages. Compounds (AN1284, AN1297, AN1298, 1×10^−10 or 1×10^−9 M) were added 2 h before LPS (100 μg/mL Sigma Ltd. phenol extracted from Escherichia coli 055: B5) and incubated at 37° C., 5% CO2. TNF-α, IL-1β and IL-6 protein were detected by means of the sandwich ELISA method using an ELISA kit for human cytokines (Biolegend, San Diego, CA, USA) according to the manufacturer's instructions.

A further assay concerns RERT/TSC1^f/f mice. Briefly: Tuberous sclerosis model: tamoxifen-induced TSC1 deletion. It is filed as in vivo, mouse. On the procedure:
RERT/TSC1^f/f mice develop kidney pathology that resembles human tuberous sclerosis (TSC). Mice bearing a floxed allele of TSC1 were purchased from Jackson laboratories and crossed to homozygosity to the RERT strain, provided by Dr. Mariano Barbacid, Spanish National Cancer Research Centre. The RERT strain contains an IRES-Cre-ERT2 knock in into the large subunit of RNA polymerase II, allowing an inducible deletion in all cell types by administration of tamoxifen. […] The mice were injected sc with tamoxifen to induce TSC1 deletion and its effect assessed on body weight and immunological parameters associated with inflammation. AN1284 (1 μmole/kg of the 2HCl salt) was injected sc, twice daily in a group of 5 female mice 5 weeks after tamoxifen challenge. An untreated group of 5 tamoxifen challenged mice served as controls. The mice were weighed once weekly and observed for development of lethargy and eye closure.

Assay [5] deals with TNF-α in human macrophages. Briefly: TNF-α in human macrophages after elevation by LPS (ELISA). Type of assay: cell-based. Here is the method: as §2, with “Compounds (AN1284, AN1297, AN1298, 1×10^−10 or 1×10^−9 M) were added 2 h before LPS (100 μg/mL Sigma Ltd. phenol extracted from Escherichia coli 055: B5) and incubated at 37° C., 5% CO2.” left out
Where [6] appears, read: N-isopropylpropylamine versus propylamine side chain.
Setting [7] is: whole kidney homogenates of diabetic mice.
Where [8] appears, read: 1 μmole/kg 2HCl salt sc twice daily.

Structures can show the parent of a compound that is named as a salt.

In the case of `COC(=O)CCC1CNc2ccccc21.Cl` (stereo not drawn) [AN647], the “Lowest concentration that inhibited NO release by 25%” value in assay [1] came out at 100 pM. For the same molecule, the “Lowest concentration that inhibited TNF-α release by 25%” value in assay [2] came to 100 pM.

`Cc1ccc(S(=O)(=O)O)cc1.NCCCC1CNc2ccccc21` (stereo not drawn) [AN1282, 3-(Indolin-3-yl)propan-1-amine di-p-Toluenesulfonate]: the “Lowest concentration that inhibited NO release by 25%” value in assay [1] stood at 100 pM. In addition, in assay [2], the “Lowest concentration that inhibited TNF-α release by 25%” value was found to be 100 pM.

On to `COC(=O)CCN1CCc2ccccc21.Cl` [AN1283, Methyl 3-(Indolin-1-yl)propanoate Hydrochloride], for which, in the assay with LPS-injected mice, the “IL-6 protein in the brain” value was “reduction” and the “IL-6 protein in the liver” value is on record as “reduction”.

Consider `CC(C)NCCCN1CCc2ccccc21.Cc1ccc(S(=O)(=O)O)cc1` [AN1284, 3-(Indolin-1-yl)-N-isopropylpropan-1-amine di-p-Toluenesulfonate], for which, in the assay on LPS-injected mice, the “IL-6 protein in the brain” value is listed as “reduction” and the “IL-6 protein in the liver” value is reported as “reduction”. The “Decrease of the concentration that inhibited significantly the release of NO” value in assay [1] (setting [6]) is 10 fold. Besides, the Degree of hyperglycaemia entry in assay [3] (2 μmoles/kg sc twice daily, fifteen weeks) is listed as “did not affect”. Besides, in assay [3] (0.5 mg/kg, sc), the “Renal mRNA expression level of fibronectin 1” value is on record as “significantly normalised”. In addition, the Total fat mass entry in assay [3] (AN1284 2HCl 2 μmoles/kg sc twice daily for fifteen weeks, diabetic mice) was “further reduction”. Further, in assay [3] (chronic treatment), the “Blood urea nitrogen levels” value is “normalizing”, the Glomerular cross-sectional area entry was “normalizing” and the Urine albumin-to-creatinine ratio entry is recorded as “normalizing”. For the same molecule, the “Increased glomerular space area and mesangial expansion” value in assay [3] (versus diabetic-vehicle-treated animals) is recorded as “completely normalised”. Also, the Kidney-to-body weight ratio result in assay [3] (versus diabetic-vehicle-treated group) is “significantly reduced”. Moreover, in assay [3] (setting [7]), the “mRNA expression level of IP-10” value was “significantly reduced”, the “mRNA expression level of TIMP1” value was “significantly reduced”, the “mRNA expression level of collagen-1” value was “significantly reduced” and the “mRNA expression level of collagen-3” value is reported as “significantly reduced”. For the same molecule, the “mRNA expression level of kidney injury marker lipocalin 2” value in assay [3] (setting [7]) was “significantly reduced”. The “Decrease of the concentration that inhibited significantly the release of TNF-α” value in assay [2] (setting [6]) came out at 10 fold. In addition, the “Reduction (%) ± STD compared to LPS alone, IL-6” value in assay [4] was 64.7 ± 14.8%. Further, in the assay on RERT/TSC1^f/f mice (setting [8]), the “MDSCs in the bone marrow and spleen (flow cytometry)” value is recorded as “significant reduction”; the “T cells in the bone marrow and spleen (flow cytometry)” value was “significant reduction”. Further, the Body weight decrease result in the assay on RERT/TSC1^f/f mice (1 μmole/kg 2HCl salt sc twice daily, versus untreated tamoxifen-challenged mice) was “much smaller decrease”. In the assay on RERT/TSC1^f/f mice (1 μmole/kg of the 2HCl salt sc twice daily, from 5 weeks after tamoxifen, five weeks of treatment), the “Development of severe lethargy” value is “none of the AN1284-treated mice developed severe lethargy”. For the same molecule, the Renal cysts entry in the assay with RERT/TSC1^f/f mice (kidney histology) is given as “clear reduction”. Besides, the “Cytokine levels of TNF-α and IL-6 in spleen and liver” value in the assay with RERT/TSC1^f/f mice (versus untreated group) is reported as “significant reduction”. Further, the “Reduction (%) ± STD compared to LPS alone, TNF-α” value (shortened to “Reduction (%) ± STD … TNF-α”) in assay [5] (6 h after LPS, 1 × 10^−9 M) is on record as 55.3 ± 9.8%. Also, the “Reduction (%) ± STD … TNF-α” value in assay [5] (12 h after LPS, 1 × 10^−10 M) is reported as 41.1 ± 5.4%. In assay [5] (12 h after LPS, 1 × 10^−11 M), the “Reduction (%) ± STD … TNF-α” value worked out at 7.1 ± 5.8 %. Also, in assay [5] (24 h after LPS, 1 × 10^−9 M), the “Reduction (%) ± STD … TNF-α” value worked out at 71.4 ± 9.7%.

With `COC(=O)CCN1CCc2cc(Cl)ccc21.Cc1ccc(S(=O)(=O)O)cc1` [AN1285, Methyl 3-(5-Chloroindolin-1-yl)propanoate p-Toluenesulfonate], in assay [1], the “Greater concentration needed to cause the same effect (NO release)” value is reported as 100 fold. Moreover, the “Greater concentration needed to cause the same effect (TNF-α release)” value in assay [2] is reported as 100 fold.

With `COc1ccc2c(c1)CCN2CCCNC(C)C` [AN1298, N-Isopropyl-3-(5-methoxyindolin-1-yl)propan-1-amine di-Hydrochloride], the “IL-6 protein in the brain” value in the assay on LPS-injected mice is reported as “reduction”. Also, the “IL-6 protein in the liver” value with LPS-injected mice is recorded as “reduction”. The “Greater concentration needed to cause the same effect (NO release)” value in assay [1] is on record as “does not affect the activity”. The “Greater concentration needed to cause the same effect (TNF-α release)” value in assay [2] is reported as “does not affect the activity”. In assay [4], the “Reduction (%) ± STD compared to LPS alone, IL-6” value stood at 54.6 ± 18.8%. Also, the “Reduction (%) ± STD … TNF-α” value worked out at 50.4 ± 13.5% in assay [5] (6 h after LPS, 1 × 10^−9 M); 28.0 ± 7.9% in assay [5] (12 h after LPS, 1 × 10^−10 M); 14.6 ± 4.2% in assay [5] (12 h after LPS, 1 × 10^−11 M); 72.2 ± 9.7% in assay [5] (24 h after LPS, 1 × 10^−9 M).
